In the experiment the target is T1, ChiA (chitinase A) (Bacillus licheniformis, UniProt B7UB89).
T1 construct: synthetic chiA gene in pET22b(+), in frame with pelB signal for periplasmic expression in E. coli BL21 (DE3); whole cells assayed
Nature of the experiment: fluorescence microtiter plate assay with whole E. coli cells expressing chiA (4MU release). The class given is cell-based. The conditions noted are these: 0.1 M sodium acetate pH 6.0; 25 µL cells + 25 µL 0.5 mg/mL 4MUTC; empty-vector cells as control.

Results on one molecule are retold here after article PMC8002391, “A High-Throughput Screening System Based on Fluorescence-Activated Cell Sorting for the Directed Evolution of Chitinase A” (International Journal of Molecular Sciences, 2021).

SMILES strings stand for the structures.

T1 sequence (B7UB89 1-580): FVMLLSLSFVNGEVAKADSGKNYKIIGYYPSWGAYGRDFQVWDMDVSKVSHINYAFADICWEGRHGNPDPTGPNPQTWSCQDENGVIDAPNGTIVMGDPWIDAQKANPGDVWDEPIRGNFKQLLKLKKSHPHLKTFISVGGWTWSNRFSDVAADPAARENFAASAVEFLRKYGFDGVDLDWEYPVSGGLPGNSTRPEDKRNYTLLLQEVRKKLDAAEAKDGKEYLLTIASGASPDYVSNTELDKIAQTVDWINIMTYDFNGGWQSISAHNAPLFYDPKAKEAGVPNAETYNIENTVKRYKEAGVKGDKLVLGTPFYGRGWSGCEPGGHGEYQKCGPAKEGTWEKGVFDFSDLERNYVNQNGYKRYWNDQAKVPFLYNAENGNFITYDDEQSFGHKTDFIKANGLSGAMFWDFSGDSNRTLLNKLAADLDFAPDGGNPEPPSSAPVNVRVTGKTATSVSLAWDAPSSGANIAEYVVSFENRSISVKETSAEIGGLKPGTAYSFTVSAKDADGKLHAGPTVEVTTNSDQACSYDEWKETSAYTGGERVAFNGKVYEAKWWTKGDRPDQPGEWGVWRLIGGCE

With `CC(=O)N[C@H]1[C@H](Oc2ccc3c(C)cc(=O)oc3c2)O[C@H](CO)[C@@H](O[C@@H]2O[C@H](CO)[C@@H](O[C@@H]3O[C@H](CO)[C@@H](O)[C@H](O)[C@H]3NC(C)=O)[C@H](O)[C@H]2NC(C)=O)[C@@H]1O` [4-methylumbelliferyl β-D-N,N′,N″-triacetyl chitotrioside], the “fluorescence microtiter plate assay with whole E. coli cells expressing chiA (4M)” value is listed as “comparing E. coli cells expressing chiA to those transformed with the empty vector”.
